# How the values were obtained:
# [1] = test system: Cryptococcus neoformans
# Description: Antifungal activity against Cryptococcus neoformans H99 ATCC 208821 (CO-ADD:FG_002); MIC in YNB media using NBS plates, by Resazurin OD(600-570)
# [2] = test system: Klebsiella pneumoniae; experiment: microbe, parasite or virus in culture; settings: ATCC 700603, 18 h, ASSAY_TEST Inhibition of Bacterial Growth, detection method Absorption (OD600), MEDIA CAMHB, plate type 384well, NBS, CORNING #3640
# Description: Antibacterial activity against Klebsiella pneumoniae MDR ATCC 70063 (CO-ADD:GN_003); MIC in CAMBH media using NBS plates, by OD(600)
# [3] = test system: Pseudomonas aeruginosa; experiment: microbe, parasite or virus in culture; settings: ATCC 27853, 18 h, ASSAY_TEST Inhibition of Bacterial Growth, detection method Absorption (OD600), MEDIA CAMHB, plate type 384well, NBS, CORNING #3640
# Description: Antibacterial activity against Pseudomonas aeruginosa ATCC 27853 (CO-ADD:GN_042); MIC in CAMBH media using NBS plates, by OD(600)
# [4] = test system: HEK293; experiment: cells; type: functional, Homo sapiens, ATCC CRL1573; settings: ASSAY_TEST Inhibition of Cell Viability, detection method Resazurin, Fluorescence (ex560/em590), MEDIA DMEM with 10% FBS, plate type 384well, TC, CORNING #3712, time 18 hr
# [5] = test system: Staphylococcus aureus; experiment: microbe, parasite or virus in culture; settings: ATCC 43300, 18 h, ASSAY_TEST Inhibition of Bacterial Growth, detection method Absorption (OD600), MEDIA CAMHB, plate type 384well, NBS, CORNING #3640
# Description: Antibacterial activity against Staphylococcus aureus MRSA ATCC 43300 (CO-ADD:GP_020); MIC in CAMBH media, using NBS plates, by OD(600)
# [6] = test system: Acinetobacter baumannii; experiment: microbe, parasite or virus in culture; settings: ATCC 19606, 18 h, ASSAY_TEST Inhibition of Bacterial Growth, detection method Absorption (OD600), MEDIA CAMHB, plate type 384well, NBS, CORNING #3640
# Description: Antibacterial activity against Acinetobacter baumannii ATCC 19606 (CO-ADD:GN_034); MIC in CAMBH media using NBS plates, by OD600
# [7] = test system: Candida albicans; experiment: microbe, parasite or virus in culture; settings: ATCC 90028, ASSAY_TEST Inhibition of Fungal Growth, detection method Absorption (OD530), plate type 384well, NBS, CORNING #3640
# Description: Antifungal activity against Candida albicans ATCC 90028 (CO-ADD:FG_001); MIC in YNB media using NBS plates, by OD630
# [8] = test system: Escherichia coli; experiment: microbe, parasite or virus in culture; settings: ATCC 25922, 18 h, ASSAY_TEST Inhibition of Bacterial Growth, detection method Absorption (OD600), MEDIA CAMHB, plate type 384well, NBS, CORNING #3640
# Description: Antibacterial activity against Escherichia coli ATCC 25922 (CO-ADD:GN_001); MIC in CAMBH media using NBS plates, by OD(600)
# [9] = Homo sapiens, ATCC CRL1573, HEK293
MIC [1] [µM],MIC [2] [µM],MIC [3] [µM],MIC [5] [µM],MIC [6] [µM],MIC [7] [µM],MIC [8] [µM],Compound,"CC50 [4, 9] [µM]",CC50 [4] [µM]
1.25,> 10,> 10,> 10,> 10,0.156,> 10,Clc1ccccc1C(c1ccccc1)(c1ccccc1)n1ccnc1 [CLOTRIMAZOLE],> 10,–
> 10,> 10,> 10,> 10,> 10,> 10,> 10,CC1(C)SC2C(NC(=O)C(N)c3ccccc3)C(=O)N2C1C(=O)O (configuration not stated),> 10,–
> 10,> 10,> 10,> 10,> 10,> 10,2.5,C=CC1=C(C(=O)O)N2C(=O)[C@@H](NC(=O)/C(=N/OCC(=O)O)c3csc(N)n3)[C@H]2SC1,> 10,–
> 10,5,1.25,1.25,5,> 10,≤ 0.0781,CC1COc2c(N3CCN(C)CC3)c(F)cc3c(=O)c(C(=O)O)cn1c23 (configuration not stated) [OFLOXACIN],> 10,–
> 10,> 10,> 10,> 10,> 10,> 10,> 10,CCOC(=O)CCC(=O)OC1C(OC2C(C)C(OC3CC(C)(OC)C(O)C(C)O3)C(C)C(=O)OC(CC)C(C)(O)C(O)C(C)C(=O)C(C)CC2(C)O)OC(C)CC1N(C)C (configuration not stated),> 10,–
> 10,5,> 10,≤ 0.0781,> 10,> 10,10,O=c1[nH]c(=O)n(C2CC(O)C(CO)O2)cc1F (configuration not stated),2.37,–
> 10,> 10,> 10,0.312,> 10,10,> 10,C/C(=C\C(=O)OCCCCCCCCC(=O)O)C[C@@H]1OC[C@H](C[C@@H]2O[C@H]2[C@@H](C)[C@H](C)O)[C@@H](O)[C@H]1O [MUPIROCIN],> 10,–
> 10,10,> 10,5,> 10,> 10,2.5,C=CC1=C(C(=O)O)N2C(=O)[C@@H](NC(=O)/C(=N\O)c3csc(N)n3)[C@H]2SC1,> 10,–
> 10,> 10,10,2.5,> 10,> 10,1.25,CN1CCN(c2c(F)cc3c(=O)c(C(=O)O)cn4c3c2SCC4)CC1,> 10,–
> 10,> 10,> 10,2.5,> 10,> 10,> 10,CC(=O)NC[C@H]1CN(c2ccc(N3CCOCC3)c(F)c2)C(=O)O1 [LINEZOLID],4.46,–
> 10,> 10,> 10,> 10,> 10,> 10,> 10,CC(C)/N=c1\cc2n(-c3ccc(Cl)cc3)c3ccccc3nc-2cc1Nc1ccc(Cl)cc1 [CLOFAZIMINE],–,0.31
> 10,> 10,10,> 10,> 10,> 10,10,CC[C@H]1OC(=O)[C@H](C)[C@@H](O[C@H]2C[C@@](C)(OC)[C@@H](O)[C@H](C)O2)[C@H](C)[C@@H](O[C@@H]2O[C@H](C)C[C@H](N(C)C)[C@H]2O)[C@](C)(O)C[C@@H](C)CN(C)[C@H](C)[C@@H](O)[C@]1(C)O [AZITHROMYCIN],> 10,–
> 10,1.25,1.25,0.625,2.5,> 10,≤ 0.0781,C[C@H]1COc2c(C3(N)CC3)c(F)cc3c(=O)c(C(=O)O)cn1c23 [PAZUFLOXACIN],> 10,–

Compound,MIC [1] [µM],MIC [2] [µM],MIC [3] [µM],MIC [5] [µM],MIC [6] [µM],MIC [7] [µM],MIC [8] [µM],"CC50 [4, 9] [µM]",CC50 [4] [µM]
Oc1cc(Cl)ccc1Oc1ccc(Cl)cc1Cl [TRICLOSAN],> 10,> 10,> 10,2.5,> 10,> 10,> 10,> 10,–

# From ChEMBL document CHEMBL4513141, “CO-ADD screening of NIH (USA) - Clinical Collection” (2021)
